This is an account of results in PMC9866588, “Novel 7-Chloro-4-aminoquinoline-benzimidazole Hybrids as Inhibitors of Cancer Cells Growth: Synthesis, Antiproliferative Activity, in Silico ADME Predictions, and Docking” (Molecules, 2023).

Like-named read-outs stand apart in the source and are kept apart here.

The test system of one series is THP-1 cells. In words: Flow cytometry analysis of cell cycle, THP-1. In kind it is cell-based, human. To be noted: THP-1, 5 μM, 24 h. The method, then:
(§1) To analyze the effects of the selected compounds (5d, 8d, and 12d) on the cell cycle of the HuT78 and THP-1 cells, the cells were seeded in 6-well plates (5 × 10^5 cells per well) and treated for 24 h with the selected compounds 5d and 12d (5 μM). The cells were then collected and fixed in cold 70% ethanol. The fixed samples were stained with 15 µg/mL of propidium iodide (PI) at room temperature and analyzed by flow cytometry (FACS Canto II, BD Biosciences). The results were analyzed using FlowLogic software.
(§2) One-way ANOVA analysis of variance was performed in the MedCalc statistical program for the analysis of the cell cycle. p-values of less than 0.05 were considered to be statistically significant.
In general terms: Flow cytometry measures light scatter and fluorescence of single cells or particles in a stream.

The test system of series [1] is HuT78 cells. In words: Flow cytometry analysis of cell cycle, HuT78. In kind it is cell-based, human. To be noted: HuT78, 5 μM, 24 h. As to the method:
as §1, §2

A short description of series [2]: MTT antiproliferative assay, ranges stated over several cell lines. To be noted: human (tumor cell lines) and dog (MDCK1); abstract, range over cell lines; read-out: GI50 range (strong cytotoxic activity). It is filed as cell-based. The method, then:
(§3) The growth inhibition activity was assessed according to the slightly modified procedure performed at the National Cancer Institute, Developmental Therapeutics Program.
(§4) The examined compounds were dissolved in DMSO (1 × 10^−2 M). The experiments were carried out on seven human tumor cell lines and a normal cell line. The following cell lines were used: HeLa (human cervical adenocarcinoma; purchased from ATCC), CaCo-2 (human colorectal adenocarcinoma), MCF-7 (human breast adenocarcinoma), CCRF-CEM (human acute lymphoblastic leukemia), Hut78 (T-cell lymphoma), THP-1 (acute monocytic leukemia), Burkitt lymphoma (Raji), and MDCK1 (Madine–Darby canine kidney). The MDCK1 cells were used between 24 and 26 passages.
(§5) The adherent cells were cultured in Dulbecco’s modified Eagle medium—DMEM (Gibco, Termo Fisher Scientific Inc., Leicestershire, England, UK), supplemented with 10% heat-inactivated fetal bovine serum (FBS, Gibco, Termo Fisher Scientific Inc., Leicestershire, England, UK), 2 mM glutamine, and 100U/0.1mg penicillin/streptomycin. The cells in suspension were cultured in RPMI 1640 (Gibco, Termo Fisher Scientific Inc., Leicestershire, England, UK) medium, supplemented with 10% FBS (Gibco, Termo Fisher Scientific Inc., Leicestershire, England, UK), 2 mM glutamine, 1 mM sodium pyruvate, and 10 mM HEPES. The cells were grown in a humidified atmosphere under the conditions of 37 °C/5% of CO2 gas in the CO2 incubator (IGO 150 CELLlife^TM, JOUAN, Thermo Fisher Scientific, Waltham, MA, USA).
(§6) The adherent cells (HeLa, CaCo-2, MCF-7, and MDCK-1) were plated in 96-well flat bottom plates (Greiner, Frickenhausen, Austria) at a concentration of 2 × 10^4 cells/mL. The suspension cells (Raji, THP-1, CCRF-CEM and Hut78) were plated in 96-well microtiter plates (Sarstead, Newton, NC, USA) at a concentration of 1 × 10^5 cells/mL. Twenty-four hours later, the cells were treated with test agents in […] and incubated for a further 72 h. The working dilutions were freshly prepared on the day of testing. The solvent was also tested for eventual inhibitory activity by adjusting its concentration to be the same as in the working concentrations. After 72 h of incubation, the cell growth rate was evaluated by performing the MTT assay, which detects dehydrogenase activity in viable cells. For this purpose, upon completion of the incubation period, the growth medium was discarded and 50 μL of MTT was added to each well at a concentration of 5 mg/mL. After four hours of incubation at 37 °C, the water insoluble MTT-formazan crystals were dissolved in 150 μL of dimethyl-sulfoxide (DMSO) for the adherent cells and in 10% SDS with 0.01 mol/L HCl for the cells grown in suspension. The absorbance (OD, optical density) was measured on a microplate reader (iMark, BIO RAD, Hercules, CA, USA) at 595 nm.
(§7) The percentage of live cells was calculated as follows: % = OD (sample) − OD (background)/OD (control) − OD (background) × 100.
(§8) The optical density (OD) of the background for the adherent cells is the OD of the MTT solution and DMSO; the OD (background) for the suspension cells is the OD of the culture medium with MTT and 10% SDS with 0.01 mol/L HCl; the OD (control) is the OD of the cells grown without the tested compounds.
(§9) The calculation of the GI50 value curves and QC analysis was performed using the Excel tools and GraphPadPrism software (La Jolla, CA, USA), v. 5.03. Briefly, individual concentration effect curves are generated by plotting the logarithm of the concentration of the tested compounds (X) vs. the corresponding percent inhibition values (Y) using the least squares fit. The best-fit GI50 values are calculated using log (inhibitor) versus normalized response—variable slope equation, where Y Ľ 100/(1 ţ 10 ((LogIC50 _ X) × HillSlope)). The QC criteria parameters (Z0, S:B, R2, HillSlope) were checked for every GI50 curve.
In general terms: Tetrazolium assays rely on reduction of a dye to a coloured formazan, in cell work by metabolically active cells.

The test system of series [3] is normal (MDCK1) and tumor cell lines. Described as above. It is filed as cell-based. The method, then:
as §3, §4, §5, §6, §7, §8, §9

In series [4] the test system is CCRF-CEM (human acute lymphoblastic leukemia) cells. In words: MTT antiproliferative assay, CCRF-CEM. It is filed as cell-based. To be noted: for GI50: Homo sapiens, CCRF-CEM, 72 h, MTT, mean ± SD of three independent experiments. The method, then:
as §3, §4, §5, §6, §7, §8, §9

The subject of series [5] is Hut78 (T-cell lymphoma) cells. In words: MTT antiproliferative assay, HuT78. In kind it is cell-based, human. To be noted: for GI50: Homo sapiens, HuT78, 72 h, MTT, mean ± SD of three independent experiments; for tumor selectivity index (SI) HuT78: with respect to MDCK1 cells. As to the method: as §3, §4, §5, §6, §7, §8, §9
The subject of series [6] is HeLa (human cervical adenocarcinoma) cells. In words: MTT antiproliferative assay, HeLa. To be noted: 72 h, mean ± SD of three independent experiments. In kind it is cell-based. As to the method: as §3, §4, §5, §6, §7, §8, §9
The test system of series [7] is Raji (Burkitt lymphoma) cells. Briefly: MTT antiproliferative assay, Raji. To be noted: for GI50: Homo sapiens, Raji, 72 h, MTT, mean ± SD of three independent experiments. It is filed as cell-based, human. As to the method: as §3, §4, §5, §6, §7, §8, §9
The subject of series [8] is MCF-7 (human breast adenocarcinoma) cells. In words: MTT antiproliferative assay, MCF-7. It is filed as cell-based. To be noted: MCF7, 72 h, mean ± SD of three independent experiments. The method, then:
as §3, §4, §5, §6, §7, §8, §9

Series [9] deals with THP-1 (acute monocytic leukemia) cells. Briefly: MTT antiproliferative assay, THP-1. To be noted: for GI50: Homo sapiens, THP-1, 72 h, MTT, mean ± SD of three independent experiments, read-out: GI50 THP1. It is filed as cell-based, human. The method, then: as §3, §4, §5, §6, §7, §8, §9
Series [10] has as its system MDCK1 (Madine–Darby canine kidney) cells. In words: MTT antiproliferative assay, MDCK1. To be noted: Canis lupus familiaris, MDCK1, 72 h, mean ± SD of three independent experiments. It is filed as cell-based. As to the method: as §3, §4, §5, §6, §7, §8, §9
Series [11] deals with CaCo-2 (human colorectal adenocarcinoma) cells. Briefly: MTT antiproliferative assay, CaCo-2. In kind it is cell-based. To be noted: 72 h, mean ± SD of three independent experiments. As to the method:
as §3, §4, §5, §6, §7, §8, §9

Series [12] relates to HuT78 cells. Briefly: Annexin V-FITC/PI apoptosis detection. To be noted: HuT78, 5 μM, 24 h. It is filed as cell-based, human. As to the method:
The proapoptotic potential of compounds 5d and 12d was tested on the HuT78 cells using the Annexin V-FITC Apoptosis Staining/Detection Kit (ab14085; abcam, UK). The cells were plated in 6-well plates at a concentration of 5 × 10^5 cells/well and treated for 24 h with 12d at a concentration of 5 μM. After the incubation period, the cells were collected and centrifuged at 1100 rpm for 6 min, stained according to the manufacturer‘s protocol, and analyzed by flow cytometry (BD FACSCalibur, Becton Dickinson, San Jose, CA, USA) using FlowJo software (FlowJo, LLC, Ashland, OR, USA).

The test system of series [13] is HuT78 cells. Briefly: Mitochondrial membrane potential (∆Ψm), TMRE flow cytometry. In kind it is cell-based, human. To be noted: HuT78, 5 μM, 24 h. As to the method: Changes in the (∆Ψm) were measured using TMRE (tetramethylrhodamine, ethyl ester and perchlorate) dye. In brief, the tested cells (HuT 78) were plated in 6-well plates at a concentration of 5 × 10^5 cells per well and treated with 5 μM of the compounds 5d and 12d. After 24 h of treatment, the cells were collected, centrifuged for 6 min at 1100 rpm, and stained with 200 nM of TMRE dye according to the kit protocol (TMRE Mitochondrial Membrane Potential Assay Kit, abcam, Cambridge, UK). The positive control cells were treated with 20 μM FCCP (carbonyl cyanide-p-trifluoromethoxyphenylhydrazone) for 10 min. The cells were analyzed by flow cytometry (BD FACSCalibur, Becton Dickinson, San Jose, CA, USA) and FlowJo software (FlowJo, LLC, Ashland, OR, USA).

With `Clc1ccc2c(N3CCN(c4ccc(-c5nc6ccccc6[nH]5)cc4)CC3)ccnc2c1` [Compound 8d, 4-(4-(4-(1H-benzo[d]imidazol-2-yl)phenyl)piperazin-1-yl)-7-chloroquinoline], the “changes in the cell cycle” value with THP-1 cells (vs non-treated cells) and with HuT78 cells [1] (vs non-treated cells) was “no significant changes” in each case. For the same compound, the GI50 (commonly the concentration giving 50% growth inhibition) at 72 h in series [2] lay within 0.4 to 8 µM. The concentration for 50% growth inhibition (GI50) was above 100 µM in [3] (MDCK1 and carcinoma cell lines, read-out: GI50, normal and carcinoma cells); 5 ± 2.6 µM in [4]; 8.1 ± 4.7 µM in series [5]; above 100 µM in series [6]; 3.8 ± 0.5 µM in series [7]; above 100 µM in series [8]. For the same compound, the GI50 was 3.2 ± 1.1 µM in series [9], above 100 µM in [10] and above 100 µM in series [11]. Moreover, the “tumor selectivity index (SI) CCRF CEM” value in series [4] (with respect to MDCK1 cells) is recorded as above 20. In [5], the “tumor selectivity index (SI) HuT78” value was above 12.3. Moreover, the “tumor selectivity index (SI) Raji” value in series [7] (with respect to MDCK1 cells) was above 26.3. For the same compound, the “tumor selectivity index (SI) THP1” value in [9] (with respect to MDCK1 cells) is above 31.5.

For `Clc1ccc2[nH]c(-c3ccc(N4CCN(c5ccnc6cc(Cl)ccc56)CC4)cc3)nc2c1` [Compound 8e, 7-chloro-4-(4-(4-(5-chloro-1H-benzo[d]imidazol-2-yl)phenyl)piperazin-1-yl)quinoline], the GI50 in [3] (MDCK1, leukemia and lymphoma cell lines, read-out: GI50 range, leukemia and lymphoma cells) is 13.4 to 41 µM; in [4], 41 ± 0.5 µM; in series [5] it was 15.6 ± 9.8 µM; in series [6] it was 100 µM; in series [7], 13.4 ± 2.6 µM; in [8], 84 ± 7.7 µM. The GI50 was 22.3 ± 7.4 µM in series [9], 2.7 ± 0.3 µM in series [10] and above 100 µM in [11].

In the case of `O=C(NCCNc1ccnc2cc(Cl)ccc12)c1ccc(-c2nc3ccccc3[nH]2)cc1` [Compound 12d, 4-(1H-benzo[d]imidazol-2-yl)-N-(2-(7-chloroquinolin-4-ylamino)ethyl)benzamide], in the series with HuT78 cells [12], the “cells in early apoptosis” value is recorded as 3.97%. For the same compound, the “cells in late stage of apoptosis/necrosis” value with HuT78 cells [12] was 83.75%. In addition, in the series with HuT78 cells [13], the “cells with mitochondrial membrane disruption / change in ∆Ψm” value is on record as “more than 85%”. In addition, in the series with THP-1 cells, the “changes in the other phases of the cell cycle (other than subG0/G1)” value was “not statistically significant”. Besides, the results for the “increase of cells in subG0/G1 phase” value in the series on THP-1 cells (vs control) and with HuT78 cells [1] (vs control) were 3.4 times and 46 times, respectively. Besides, the “proportion of polyploid giant cancer cells” value in the series with HuT78 cells [1] is recorded as “increased proportion”. The “decrease in G0/G1 phase” value in the series with HuT78 cells [1] (vs non-treated cells) is 63.8%. Besides, the GI50 at 72 h in [2] was in the range of 0.4 to 8 µM. For the same compound, the GI50 is 17.2 ± 7.7 µM in [4]; 3.5 ± 1.5 µM in series [5]; 100 µM in series [6]; 57.7 ± 23.8 µM in series [7]; 20 ± 7.2 µM in series [8]; 4 ± 0.8 µM in [9]. The GI50 is 100 µM in [10] and 16.4 ± 5.6 µM in series [11]. In [5], the “tumor selectivity index (SI) HuT78” value is listed as 28.5.
